Reference: ChEMBL document CHEMBL1143305, “SAR and biological evaluation of analogues of a small molecule histone deacetylase inhibitor N-(2-aminophenyl)-4-((4-(pyridin-3-yl)pyrimidin-2-ylamino)methyl)benzamide (MGCD0103)” (Bioorg Med Chem Lett, 2009)
Calls of active or inactive are those of the source. The calls are words filed in the database; no cut-off is given here.

Tests used:
[1] = target: Histone deacetylase 1 (Homo sapiens, UniProt Q13547); test: Inhibition of human recombinant HDAC1
[2] = system: HMEC; test: Antiproliferative activity against HMEC by MTT assay; format: cell-based; conditions: Homo sapiens
[3] = system: HMEC; test: Selectivity ratio of IC50 for HMEC to IC50 for human HCT116 cells
[4] = system: T-24; test: Induction of histone H4 hyperacetylation in human T24 cells after 16 hrs by immunoblotting; format: functional, cell-based; conditions: for EC50: T-24, 16 h
[5] = system: HCT-116; test: Induction of p21WAF1/CIP1 expression in human HCT116 cells assessed as […] after 16 hrs by luciferase assay; format: functional, cell-based; conditions: for EC50: HCT-116, 16 h
[6] = system: HCT-116; test: Induction of apoptosis in human HCT116 cells; format: functional, cell-based
[7] = system: HCT-116; test: cells; conditions: Homo sapiens
Description: (§1) Antiproliferative activity against human HCT116 cells by MTT assay

[8] = system: HCT-116; conditions: Homo sapiens
Description: as §1

Histone deacetylase 1, sequence (Q13547 whole entry): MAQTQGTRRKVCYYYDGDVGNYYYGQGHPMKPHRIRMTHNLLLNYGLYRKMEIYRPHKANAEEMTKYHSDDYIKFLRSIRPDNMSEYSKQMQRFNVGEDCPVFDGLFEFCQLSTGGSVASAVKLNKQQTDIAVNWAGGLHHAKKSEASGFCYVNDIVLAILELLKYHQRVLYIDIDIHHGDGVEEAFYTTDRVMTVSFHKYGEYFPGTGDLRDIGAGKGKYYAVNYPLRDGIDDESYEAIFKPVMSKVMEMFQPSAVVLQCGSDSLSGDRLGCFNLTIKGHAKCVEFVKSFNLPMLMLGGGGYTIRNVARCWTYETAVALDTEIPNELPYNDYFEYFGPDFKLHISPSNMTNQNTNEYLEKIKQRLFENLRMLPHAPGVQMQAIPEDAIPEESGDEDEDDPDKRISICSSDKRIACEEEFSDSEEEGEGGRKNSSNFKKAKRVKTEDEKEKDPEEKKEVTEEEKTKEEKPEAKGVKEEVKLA

Compound | IC50 [1] | IC50 [2] | Ratio IC50 [3] | EC50 [4] | EC50 [5] | Activity [6] | IC50 [7] | Activity [4] | Activity [8] | Activity [5]
Nc1ccccc1NC(=O)c1ccc(CNc2nccc(-c3ccc(N4CCOCC4)nc3)n2)cc1 | 50 nM | 5000 nM | >20 | < 1000 nM | 400 nM | Active | < 50 nM |  |  | 
Nc1ccccc1NC(=O)c1ccc(CNc2nccc(-c3ccc(OCCN4CCOCC4)cc3)n2)cc1 | 80 nM | 8000 nM | >30 | < 1000 nM | 100 nM |  | 100 nM |  |  | 
O=C(Nc1ccccc1)c1ccc(CNc2nccc(-c3cccnc3)n2)cc1 | > 25000 nM |  |  |  |  |  | > 50000 nM |  |  | 
Nc1ccccc1NC(=O)c1ccc(CNc2cc(-c3cccnc3)ncn2)cc1 | 70 nM | 42000 nM | >15 | < 1000 nM | 500 nM | Active | < 50 nM |  |  | 
Nc1ccccc1NC(=O)c1ccc(CNc2nccc(-c3ccsc3)n2)cc1 | 70 nM | 7000 nM | >30 | 3000 nM | 300 nM |  | 70 nM |  |  | 
N#Cc1ccc(-c2ccnc(NCc3ccc(C(=O)Nc4ccccc4N)cc3)n2)cn1 | 160 nM | > 50000 nM | >20 | 1000 nM | 700 nM | Active | 400 nM |  |  | 
Nc1ccccc1NC(=O)c1ccc(CNc2nccc(-c3cccnc3)n2)cc1 [MOCETINOSTAT] |  | 21000 nM |  | < 1000 nM | 600 nM |  | 300 nM |  |  | 
CN(C)CCOc1ccc(-c2ccnc(NCc3ccc(C(=O)Nc4ccccc4N)cc3)n2)cc1 | 120 nM | 10000 nM | >30 | < 1000 nM | 100 nM |  | 90 nM |  |  | 
Nc1ccccc1NC(=O)c1ccc(CNc2ccnc(-c3cccnc3)n2)cc1 | 200 nM | 11000 nM |  | < 1000 nM | 600 nM | Active | 400 nM |  |  | 
CC(C)(O)c1ccc(-c2ccnc(NCc3ccc(C(=O)Nc4ccccc4N)cc3)n2)cn1 | 230 nM | 38000 nM | >20 | 2000 nM | 600 nM | Active | 100 nM |  |  | 
Nc1ccccc1NC(=O)c1ccc(CNc2nccc(-c3ccc(C(=O)N4CCOCC4)nc3)n2)cc1 | 250 nM | 37000 nM | >20 |  | 2000 nM | Active | 1000 nM | inactive |  | 
CSc1ccc(-c2ccnc(NCc3ccc(C(=O)Nc4ccccc4N)cc3)n2)cn1 | 90 nM | 6000 nM | >20 | 1000 nM | 300 nM | Active | 300 nM |  |  | 
Nc1ccccc1NC(=O)c1ccc(CNc2nccc(-c3nccs3)n2)cc1 | 140 nM | 14000 nM | >30 | < 1000 nM | 500 nM |  |  |  | inactive | 
Nc1ccccc1NC(=O)c1ccc(CNc2cccc(-c3cccnc3)n2)cc1 | 180 nM | > 50000 nM |  | 1000 nM | 600 nM | Active | 600 nM |  |  | 
CN1CCN(c2ccc(-c3ccnc(NCc4ccc(C(=O)Nc5ccccc5N)cc4)n3)cn2)CC1 | 80 nM | 5000 nM | >20 |  | 200 nM | Active | 200 nM | inactive |  | 
Nc1ccccc1NC(=O)c1ccc(CNc2nccc(-c3ccc(CN4CCOCC4)cc3)n2)cc1 | 90 nM | 27000 nM | >30 | 1000 nM | 500 nM |  | 100 nM |  |  | 

Compound | IC50 [1] | IC50 [2] | Ratio IC50 [3] | EC50 [4] | EC50 [5] | Activity [6] | IC50 [7] | Activity [4] | Activity [8] | Activity [5]
COCOC(C)(C)c1ccc(-c2ccnc(NCc3ccc(C(=O)Nc4ccccc4N)cc3)n2)cn1 | 250 nM | 49000 nM | >20 | 1000 nM | 1000 nM | Active | 100 nM |  |  | 
Nc1ccccc1C(=O)Nc1ccc(CNc2nccc(-c3cccnc3)n2)cc1 | > 20000 nM |  |  |  |  |  | 25000 nM |  |  | 
Nc1ccccc1NC(=O)c1ccc(CNc2cncc(-c3cccnc3)n2)cc1 | 110 nM | 16000 nM | >15 | 1000 nM | 400 nM | Active | 300 nM |  |  | 
CN(C)C(=O)c1ccc(-c2ccnc(NCc3ccc(C(=O)Nc4ccccc4N)cc3)n2)cn1 | 420 nM | > 50000 nM | >20 | 2000 nM | 900 nM | Active | 300 nM |  |  | 
Nc1ccccc1NC(=O)c1ccc(/C=C/CNc2nccc(-c3cccnc3)n2)cc1 | 130 nM |  |  |  |  |  |  |  |  | 
CN(C)CCOc1cccc(-c2ccnc(NCc3ccc(C(=O)Nc4ccccc4N)cc3)n2)c1 | 130 nM | 11000 nM | >30 | < 1000 nM |  |  | 300 nM |  |  | inactive
Nc1ccccc1NC(=O)c1ccc(CNc2nccc(-c3cc(CO)no3)n2)cc1 | 210 nM | > 50000 nM | >30 | 1000 nM |  |  | 800 nM |  |  | inactive
Nc1cc(-c2cccnc2)nc(NCc2ccc(C(=O)Nc3ccccc3N)cc2)n1 | 170 nM | 14000 nM |  | 1000 nM | 200 nM |  | 200 nM |  |  | 
CSc1nc(NCc2ccc(C(=O)Nc3ccccc3N)cc2)cc(-c2cccnc2)n1 | 250 nM | 13000 nM |  | 1000 nM | 600 nM |  | 100 nM |  |  | 
Nc1ccccc1NC(=O)/C=C/c1ccc(CNc2nccc(-c3cccnc3)n2)cc1 | 1200 nM |  |  |  |  |  | 2000 nM |  |  | 
Nc1ccccc1NC(=O)c1ccc(CNc2nccc(-c3cccc(OCCN4CCOCC4)c3)n2)cc1 | 140 nM | 41000 nM | >30 | 1000 nM | 400 nM |  | 300 nM |  |  | 
Nc1ccccc1NC(=O)c1ccc(Nc2nccc(-c3cccnc3)n2)cc1 | 2000 nM |  |  |  |  |  | 2000 nM |  |  | 
Nc1ccccc1NC(=O)c1ccc(CNc2cccc(-c3cccnc3)c2)cc1 | 90 nM | 5000 nM | >15 | < 1000 nM | 600 nM | Active | 300 nM |  |  | 
Nc1ccccc1NC(=O)c1cccc(CNc2nccc(-c3cccnc3)n2)c1 | > 20000 nM |  |  |  |  |  | 43000 nM |  |  | 
Nc1ccccc1NC(=O)c1ccc(CNc2nccc(-c3cnccn3)n2)cc1 | 190 nM | 23000 nM | >30 | 1000 nM | 600 nM |  | 300 nM |  |  | 
